Test results taken from US20250084095A1, “Aminopyrimidine Derivatives as Cyclin-Dependent Kinase Inhibitors” (Accutar Biotechnology Inc., priority 2023, published 2025).

Experiments:
[1] = tested on: 22RV1 cells; test: Cell growth inhibition of 22RV1 cells (CellTiter-Glo); assay type: cell-based; details: Homo sapiens, 22Rv1, 120 h, 5 days, CellTiter-Glo, read-out: 22RV1 Cell Growh GI50
Protocol: For cell growth assay, 22RV1 (ATCC, CRL-2505) cells were seeded in 96-well plates at 1000 cells/well in 90 μl of RPMI1640 growth medium containing 20% FBS and 1% Penicillin Streptomycin, and then incubated at 37° C. overnight. The following day, the test compound was administered to the cells by using 1000× compound stock solution prepared in DMSO at various concentrations. 1000× compound stock solution was first diluted in culturing medium to 10×, then 10 uL compound medium was added to each well in the cell plates. After administration of the compound, the cells were then incubated at 37° C. for 5 days. Upon completion, the plates were equilibrated at room temperature for approximately 10 min. 100 μl of CellTiter-Glo® Reagent (Promega) was added to each well. The plates were then incubated at room temperature for 10 min and luminescence was recorded by EnSpire plate reader (PerkinElmer).
22RV1 cells were obtained from American Type Culture Collection (ATCC, CRL-2505). 22RV1 cells were seeded in 96-well plates at 1000 cells/well in 90 μL of RPMI1640 growth medium containing 10% FBS and 1% Penicillin Streptomycin, and then incubated at 37° C. overnight. The following day, the test compound was administered to the cells by using 1000× compound stock solution prepared in DMSO at various concentrations. […], then 10 uL compound medium was added to each well in the cell plates. After administration of the compound, the cells were then incubated at […] for 5 days. Upon completion, the plates were equilibrated at room temperature for approximately 10 minutes. 100 μL of CellTiter-Glo® Reagent (Promega) was added to each well. The plates were then incubated at room temperature for 10 minutes and luminescence was recorded by EnSpire plate reader (PerkinElmer).

[2] = tested on: Phospho-Rb (Ser807/811) in MCF7 cells; test: Phospho-Rb expression inhibition in MCF7 cells quantified by in cell Western; assay type: cell-based, human; details: Homo sapiens, MCF7, 24 h, 24 hours, in cell Western, read-out: MCF7 pRb IC50
Protocol: MCF7 cells were obtained from American Type Culture Collection (ATCC, HTB-22). MCF7 cells were plated in 96-well plates (VWR #10062-900, or Coming #3904) in 90 μL culture medium at a density of 20,000 cells/well in the DMEM growth medium containing 10%/FBS and 1% Penicillin Streptomycin, and then incubated at 37° C. overnight. The following day, the test compound was administered to the cells by using 1000× compound stock solution prepared in DMSO at various concentrations. 1000× compound stock solution was first diluted in culturing medium to 10×, then 10 μL compound medium was added to each well in the cell plates. After administration of the compound, the cells were then incubated at 37° C. for 24 h. Upon completion, the cells were washed with PBS briefly. 150 μL/well of 4% formaldehyde was added and the plates were incubated at room temperature for 20 min. The cells were washed with PBS briefly, and permeabilized with 150 µL/well of ice cold 100% methanol for 10 min. The cells were washed with PBS briefly and blocked with 100 µL/well LI-COR blocking buffer for 1 h at room temperature with gentle shaking. The cells were incubated overnight at 4° C. with 50 μL primary antibody rabbit anti-Phospho-Rb (Ser807/811) (1: 500, Cell Signaling, #8516) and anti-Rb (1:200, Santa Cruz, sc-73598) diluted in Intercept Blocking Buffer (LI-COR, #927-60001) containing 0.1% Tween 20. The next day, the cells were washed with 200 μL PBS containing 0.1% Tween 20, 5×5 mins at room temperature with gentle shaking, and incubated with 50 μL secondary antibody, IRDye® 800CW Goat anti-Rabbit IgG (1:1000, LI-COR, #926-32211) and FRDye® 680RD Goat anti-Mouse IgG (1:1000, LI-COR, #926-68070), in LI-COR […] blocking buffer with 0.2% Tween 20 for 1 h at room temperature with gentle shaking. The cells were washed with 200 μL PBS containing 0.1% Tween 20, 5×5 min at room temperature with gentle shaking. The cells were washed with PBS for 5 mins. 100 μL fresh PBS was added to each well and the plates were imaged on a LI-COR Odyssey CLX plate reader.
MCF7 cells were obtained from American Type Culture Collection (ATCC, HTB-22). SW1573-CDK6 KO and SW1573-CDK4 KO cells were generated by the CRISPR-Cas9 technology. All cells were plated in 96-well plates (VWR #10062-900, or Corning #3904) in 90 uL culture medium at a density of 20,000 cells/well in the respective growth medium containing 10% FBS and 1% Penicillin Streptomycin, and then incubated at 37° C. overnight. The following day, the test compound was administered to the cells by using 1000× compound stock solution prepared in DMSO at various concentrations. 1000× compound stock solution was first diluted in culturing medium to 10×, then 10 uL compound medium was added to each well in the cell plates. After administration of the compound, the cells were then incubated at 37° C. for 24 hours. Upon completion, the cells were washed with PBS briefly. 150 uL/well of 4% formaldehyde was added and the plates were incubated at room temperature for 20 mins. The cells were washed with PBS briefly, and permeabilized with 150 uL/well of ice cold 100% methanol for 10 mins. The cells were washed with PBS briefly and blocked with 100 uL/well LI-COR blocking buffer for 1 hr at room temperature with gentle shaking. The cells were incubated overnight at 4° C. with 50 uL primary antibody rabbit anti-Phospho-Rb (Ser807/811) (1: 500, Cell Signaling, #8516) and anti-Rb (1:200, Santa Cruz, sc-73598) diluted in Intercept Blocking Buffer (LI-COR, #927-60001) containing 0.1% Tween 20. The next day, the cells were washed with 200 uL PBS containing 0.1% Tween 20, 5×5 mins at room temperature with gentle shaking, and incubated with 50 uL secondary antibody, IRDye® 800CW Goat anti-Rabbit IgG (1:1000, LI-COR, #926-32211) and IRDye®680RD Goat anti-Mouse IgG (1:1000, LI-COR, #926-68070), in LI-COR blocking buffer with 0.2% Tween 20 for 1 hr at room temperature with gentle shaking. […]

Compound | GI50 [1] [nM] | IC50 [2] [nM]
CC(C)n1c(C(F)(F)CO)nc2c(F)cc(-c3nc(N[C@@H]4C[C@H]5CO[C@H](O5)[C@H]4O)ncc3Cl)cc21 [Compound 176, (1S,3R,4S,5R)-3-((5-chloro-4-(2-(1,1-difluoro-2-hydroxyethyl)-4-fluoro-1-isopropyl-1H-benzo[d]imidazol-6-yl)pyrimidin-2-yl)amino)-6,8-dioxabicyclo[3.2.1]octan-4-ol] | 450 to 3000 | 150 to 1000
CN(C)C(=O)c1cc2c(F)cc(-c3nc(N[C@@H]4C[C@H]5CO[C@H](O5)[C@H]4O)ncc3Cl)cc2n1C1CCCC1 [Compound 183, 6-(5-chloro-2-(((1S,3R,4S,5R)-4-hydroxy-6,8-dioxabicyclo[3.2.1]octan-3-yl)amino)pyrimidin-4-yl)-1-cyclopentyl-4-fluoro-N,N-dimethyl-1H-indole-2-carboxamide] | > 3000 | > 1000
CC(C)n1c([C@@H]2COC(=O)N2C)nc2c(F)cc(-c3nc(N[C@@H]4C[C@H]5CO[C@H](O5)[C@H]4O)ncc3Cl)cc21 [Compound 185, (R)-4-(6-(5-chloro-2-(((1S,3R,4S,5R)-4-hydroxy-6,8-dioxabicyclo[3.2.1]octan-3-yl)amino)pyrimidin-4-yl)-4-fluoro-1-isopropyl-1H-benzo[d]imidazol-2-yl)-3-methyloxazolidin-2-one] | 450 to 3000 | 150 to 1000
CC(C)n1c(-c2cn[nH]c2)nc2c(F)cc(-c3nc(N[C@@H]4C[C@H]5CO[C@H](O5)[C@H]4O)ncc3Cl)cc21 [Compound 186, (1S,3R,4S,5R)-3-((5-chloro-4-(4-fluoro-1-isopropyl-2-(1H-pyrazol-4-yl)-1H-benzo[d]imidazol-6-yl)pyrimidin-2-yl)amino)-6,8-dioxabicyclo[3.2.1]octan-4-ol] | 120 to 450 | 150 to 1000
CC(C)n1c(-c2cnn(C)c2)nc2c(F)cc(-c3nc(N[C@@H]4C[C@H]5CO[C@H](O5)[C@H]4O)ncc3Cl)cc21 [Compound 187, (1S,3R,4S,5R)-3-((5-chloro-4-(4-fluoro-1-isopropyl-2-(1-methyl-1H-pyrazol-4-yl)-1H-benzo[d]imidazol-6-yl)pyrimidin-2-yl)amino)-6,8-dioxabicyclo[3.2.1]octan-4-ol] | 120 to 450 | 150 to 1000
CC(C)c1cn(C)c(=O)c2c(F)cc(-c3nc(N[C@@H]4C[C@H]5CO[C@H](O5)[C@H]4O)ncc3Cl)cc12 [Compound 188, 6-(5-chloro-2-(((1S,3R,4S,5R)-4-hydroxy-6,8-dioxabicyclo[3.2.1]octan-3-yl)amino)pyrimidin-4-yl)-8-fluoro-4-isopropyl-2-methylisoquinolin-1(2H)-one] | 120 to 450 | 150 to 1000
Cc1c(C)n(C(C)C)c2cc(-c3nc(N[C@@H]4C[C@H]5CO[C@H](O5)[C@H]4O)ncc3F)ccc2c1=O [Compound 190, 7-(5-fluoro-2-(((1S,3R,4S,5R)-4-hydroxy-6,8-dioxabicyclo[3.2.1]octan-3-yl)amino)pyrimidin-4-yl)-1-isopropyl-2,3-dimethylquinolin-4(1H)-one] | 120 to 450 | 40 to 150

Now from value to molecule:

GI50 [1] [nM] | IC50 [2] [nM] | Compound
120 to 450 | 40 to 150 | CC(C)N1CCOc2c(F)cc(-c3nc(N[C@@H]4C[C@H]5CO[C@H](O5)[C@H]4O)ncc3Cl)cc21 [Compound 173, (1S,3R,4S,5R)-3-((5-chloro-4-(8-fluoro-4-isopropyl-3,4-dihydro-2H-benzo[b][1,4]oxazin-6-yl)pyrimidin-2-yl)amino)-6,8-dioxabicyclo[3.2.1]octan-4-ol]
120 to 450 | 40 to 150 | C[C@H]1COc2c(-c3nc(N[C@@H]4C[C@H]5CO[C@H](O5)[C@H]4O)ncc3Cl)cc(F)c3c2N1CCO3 [Compound 174, (1S,3R,4S,5R)-3-((5-chloro-4-((S)-9-fluoro-4-methyl-2,3,4,5-tetrahydro-1,6-dioxa-3a-azaphenalen-7-yl)pyrimidin-2-yl)amino)-6,8-dioxabicyclo[3.2.1]octan-4-ol]
120 to 450 | 150 to 1000 | CC(C)(O)c1nc2c(F)cc(-c3nc(N[C@@H]4C[C@H]5CO[C@H](O5)[C@H]4O)ncc3Cl)cc2n1C12CC(C1)C2 [Compound 181, (1S,3R,4S,5R)-3-((4-(1-(bicyclo[1.1.1]pentan-1-yl)-4-fluoro-2-(2-hydroxypropan-2-yl)-1H-benzo[d]imidazol-6-yl)-5-chloropyrimidin-2-yl)amino)-6,8-dioxabicyclo[3.2.1]octan-4-ol]
120 to 450 | 150 to 1000 | Cc1nc2c(F)cc(-c3nc(N[C@@H]4C[C@H]5CO[C@H](O5)[C@H]4O)ncc3Cl)cc2n1[C@@H]1CCC[C@@]1(C)O [Compound 182, (1S,3R,4S,5R)-3-((5-chloro-4-(4-fluoro-1-((1R,2R)-2-hydroxy-2-methylcyclopentyl)-2-methyl-1H-benzo[d]imidazol-6-yl)pyrimidin-2-yl)amino)-6,8-dioxabicyclo[3.2.1]octan-4-ol]
120 to 450 | 150 to 1000 | CC(C)n1c([C@@H]2COC(=O)N2)nc2c(F)cc(-c3nc(N[C@@H]4C[C@H]5CO[C@H](O5)[C@H]4O)ncc3Cl)cc21 [Compound 184, (R)-4-(6-(5-chloro-2-(((1S,3R,4S,5R)-4-hydroxy-6,8-dioxabicyclo[3.2.1]octan-3-yl)amino)pyrimidin-4-yl)-4-fluoro-1-isopropyl-1H-benzo[d]imidazol-2-yl)oxazolidin-2-one]
≤ 120 | ≤ 40 | Cc1c(-c2nc(N[C@@H]3C[C@H]4CO[C@H](O4)[C@H]3O)ncc2F)sc2c(C(C)C)cn(C)c(=O)c12 [Compound 189, 2-(5-fluoro-2-(((1S,3R,4S,5R)-4-hydroxy-6,8-dioxabicyclo[3.2.1]octan-3-yl)amino)pyrimidin-4-yl)-7-isopropyl-3,5-dimethylthieno[3,2-c]pyridin-4(5H)-one]
